Measured values reported in PubChem BioAssay (NCI).
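Five compound concentrations were applied to cells in 96-well plates for 48 hours; endpoints were derived by simple linear interpolation of the resulting dose-response curve. TGI denotes the concentration required for complete inhibition of growth.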

Experiments:
Experiment in all cases: DTP human tumour cell line panel, 48 h
SW-620 colon = tested on: SW-620 colon
HT29 colon = tested on: HT29 colon
UACC-62 melanoma = tested on: UACC-62 melanoma
TK-10 renal = tested on: TK-10 renal
ACHN renal = tested on: ACHN renal
NCI-H23 lung = tested on: NCI-H23 lung
EKVX NSCLC = tested on: EKVX NSCLC
COLO 205 colon = tested on: COLO 205 colon
HOP-62 NSCLC = tested on: HOP-62 NSCLC
CAKI-1 renal = tested on: CAKI-1 renal
A498 renal = tested on: A498 renal
U251 CNS = tested on: U251 CNS
BT-549 breast = tested on: BT-549 breast
HS 578T breast = tested on: HS 578T breast
SF-268 CNS = tested on: SF-268 CNS
NCI-H226 lung = tested on: NCI-H226 lung
NCI/ADR-RES ovarian = tested on: NCI/ADR-RES ovarian
OVCAR-4 ovarian = tested on: OVCAR-4 ovarian
MCF7 breast = tested on: MCF7 breast
SN12C renal = tested on: SN12C renal
MDA-MB-231 breast = tested on: MDA-MB-231 breast
RXF 393 renal = tested on: RXF 393 renal
A549 NSCLC = tested on: A549 NSCLC
MALME-3M melanoma = tested on: MALME-3M melanoma
HL-60(TB) leukemia = tested on: HL-60(TB) leukemia
HCT-116 colon = tested on: HCT-116 colon
SF-295 CNS = tested on: SF-295 CNS
NCI-H460 lung = tested on: NCI-H460 lung
OVCAR-5 ovarian = tested on: OVCAR-5 ovarian
T-47D breast = tested on: T-47D breast
SK-OV-3 ovarian = tested on: SK-OV-3 ovarian
OVCAR-8 ovarian = tested on: OVCAR-8 ovarian
NCI-H522 lung = tested on: NCI-H522 lung
SNB-19 CNS = tested on: SNB-19 CNS
SR leukemia = tested on: SR leukemia
DU-145 prostate = tested on: DU-145 prostate
UACC-257 melanoma = tested on: UACC-257 melanoma
SF-539 CNS = tested on: SF-539 CNS
HCT-15 colon = tested on: HCT-15 colon
IGROV1 ovarian = tested on: IGROV1 ovarian
MDA-N = tested on: MDA-N
PC-3 prostate = tested on: PC-3 prostate
CCRF-CEM leukemia = tested on: CCRF-CEM leukemia
K-562 leukemia = tested on: K-562 leukemia
HCC-2998 colon = tested on: HCC-2998 colon
MOLT-4 leukemia = tested on: MOLT-4 leukemia
HOP-92 NSCLC = tested on: HOP-92 NSCLC
SNB-75 CNS = tested on: SNB-75 CNS
RPMI-8226 leukemia = tested on: RPMI-8226 leukemia
SK-MEL-5 melanoma = tested on: SK-MEL-5 melanoma
UO-31 renal = tested on: UO-31 renal
KM12 colon = tested on: KM12 colon
M14 melanoma = tested on: M14 melanoma
MDA-MB-435 = tested on: MDA-MB-435
SK-MEL-28 melanoma = tested on: SK-MEL-28 melanoma
786-0 renal = tested on: 786-0 renal
SK-MEL-2 melanoma = tested on: SK-MEL-2 melanoma
OVCAR-3 ovarian = tested on: OVCAR-3 ovarian
LOX IMVI melanoma = tested on: LOX IMVI melanoma

Compound `CC(=O)O[C@H]1C(=O)[C@@]2(C)[C@H]([C@H](OC(=O)c3ccc([N+](=O)[O-])cc3)[C@]3(O)C[C@H](OC(=O)[C@H](O)[C@@H](NC(=O)c4ccccc4)c4ccccc4)C(C)=C1C3(C)C)[C@]1(OC(C)=O)CO[C@@H]1C[C@@H]2O` has a TGI (SW-620 colon) greater than 25 µM, a TGI (HT29 colon) greater than 25 µM and a TGI (UACC-62 melanoma) greater than 25 µM. It also gave a TGI (TK-10 renal) greater than 25 µM, a TGI (ACHN renal) greater than 25 µM and a TGI (NCI-H23 lung) greater than 25 µM. The TGI (EKVX NSCLC) was greater than 25 µM, the TGI (COLO 205 colon) was greater than 25 µM and the TGI (HOP-62 NSCLC) was greater than 25 µM. For the same compound, the TGI (CAKI-1 renal) was greater than 25 µM, the TGI (A498 renal) was greater than 25 µM and the TGI (U251 CNS) was greater than 25 µM. It also gave a TGI (BT-549 breast) greater than 25 µM, a TGI (HS 578T breast) greater than 25 µM and a TGI (SF-268 CNS) greater than 25 µM. For the same compound, the TGI (NCI-H226 lung) was greater than 25 µM, the TGI (NCI/ADR-RES ovarian) was greater than 25 µM and the TGI (OVCAR-4 ovarian) was greater than 25 µM. For the same compound, the TGI (MCF7 breast) was greater than 25 µM, the TGI (SN12C renal) was greater than 25 µM and the TGI (MDA-MB-231 breast) was greater than 25 µM. The TGI (RXF 393 renal) was greater than 25 µM, the TGI (A549 NSCLC) was greater than 25 µM and the TGI (MALME-3M melanoma) was greater than 25 µM. The TGI (HL-60(TB) leukemia) was greater than 25 µM, the TGI (HCT-116 colon) was greater than 25 µM and the TGI (SF-295 CNS) was greater than 25 µM. The TGI (NCI-H460 lung) was greater than 25 µM, the TGI (OVCAR-5 ovarian) was greater than 25 µM and the TGI (T-47D breast) was greater than 25 µM. It also gave a TGI (SK-OV-3 ovarian) greater than 25 µM, a TGI (OVCAR-8 ovarian) greater than 25 µM and a TGI (NCI-H522 lung) greater than 25 µM. The TGI (SNB-19 CNS) was greater than 25 µM, the TGI (SR leukemia) was greater than 25 µM and the TGI (DU-145 prostate) was greater than 25 µM. For the same compound, the TGI (UACC-257 melanoma) was greater than 25 µM, the TGI (SF-539 CNS) was greater than 25 µM and the TGI (HCT-15 colon) was greater than 25 µM. It also gave a TGI (IGROV1 ovarian) greater than 25 µM, a TGI (MDA-N) greater than 25 µM and a TGI (PC-3 prostate) greater than 25 µM. It also gave a TGI (CCRF-CEM leukemia) greater than 25 µM, a TGI (K-562 leukemia) greater than 25 µM and a TGI (HCC-2998 colon) greater than 25 µM. For the same compound, the TGI (MOLT-4 leukemia) was greater than 25 µM, the TGI (HOP-92 NSCLC) was greater than 25 µM and the TGI (SNB-75 CNS) was greater than 25 µM. For the same compound, the TGI (RPMI-8226 leukemia) was greater than 25 µM, the TGI (SK-MEL-5 melanoma) was greater than 25 µM and the TGI (UO-31 renal) was greater than 25 µM. For the same compound, the TGI (KM12 colon) was greater than 25 µM, the TGI (M14 melanoma) was greater than 25 µM and the TGI (MDA-MB-435) was greater than 25 µM. The TGI (SK-MEL-28 melanoma) was greater than 25 µM and the TGI (786-0 renal) was greater than 25 µM.
In the case of `c1ccc([C@@H]2N[C@@]3(CO[Si](c4ccccc4)(c4ccccc4)c4ccccc4)CC[C@H]4CN[C@@H]2[C@H]43)cc1`, the TGI (SW-620 colon) is reported as 11.7 µM, the TGI (HT29 colon) is reported as 7.17 µM and the TGI (UACC-62 melanoma) is reported as 28.2 µM. It also gave a TGI (TK-10 renal) of 30.5 µM, a TGI (ACHN renal) of 26.6 µM and a TGI (NCI-H23 lung) of 30.5 µM. For the same compound, the TGI (EKVX NSCLC) was 29.5 µM, the TGI (COLO 205 colon) was 3.14 µM and the TGI (HOP-62 NSCLC) was 31.2 µM. It also gave a TGI (CAKI-1 renal) of 25.4 µM, a TGI (A498 renal) of 30.4 µM and a TGI (U251 CNS) of 30.9 µM. It also gave a TGI (BT-549 breast) of 35.3 µM, a TGI (HS 578T breast) of 36.3 µM and a TGI (SF-268 CNS) of 22.6 µM. For the same compound, the TGI (NCI-H226 lung) was 27.5 µM, the TGI (NCI/ADR-RES ovarian) was 32.4 µM and the TGI (OVCAR-4 ovarian) was 29.3 µM. It also gave a TGI (MCF7 breast) of 11.5 µM, a TGI (SN12C renal) of 27.1 µM and a TGI (MDA-MB-231 breast) of 25.9 µM. It also gave a TGI (RXF 393 renal) of 16.9 µM, a TGI (A549 NSCLC) of 26.1 µM and a TGI (MALME-3M melanoma) of 2.65 µM. The TGI (HL-60(TB) leukemia) was 21.3 µM, the TGI (HCT-116 colon) was 11.9 µM and the TGI (SF-295 CNS) was 25 µM. For the same compound, the TGI (NCI-H460 lung) was 25 µM, the TGI (OVCAR-5 ovarian) was 31 µM and the TGI (T-47D breast) was 16.7 µM. For the same compound, the TGI (SK-OV-3 ovarian) was 30.3 µM, the TGI (OVCAR-8 ovarian) was 28.7 µM and the TGI (NCI-H522 lung) was 16.1 µM. It also gave a TGI (SK-MEL-2 melanoma) of 35.3 µM, a TGI (SNB-19 CNS) of 31.5 µM and a TGI (SR leukemia) greater than 100 µM. The TGI (DU-145 prostate) was 21.8 µM, the TGI (OVCAR-3 ovarian) was 27 µM and the TGI (UACC-257 melanoma) was 27.5 µM. For the same compound, the TGI (SF-539 CNS) was 28.6 µM, the TGI (HCT-15 colon) was 10.4 µM and the TGI (LOX IMVI melanoma) was 24 µM. The TGI (IGROV1 ovarian) was 26.7 µM, the TGI (MDA-N) was 13.1 µM and the TGI (PC-3 prostate) was 21.3 µM. For the same compound, the TGI (CCRF-CEM leukemia) was greater than 100 µM, the TGI (K-562 leukemia) was greater than 100 µM and the TGI (HCC-2998 colon) was 3.05 µM. The TGI (MOLT-4 leukemia) was greater than 100 µM, the TGI (HOP-92 NSCLC) was 15.9 µM and the TGI (RPMI-8226 leukemia) was 13.8 µM. The TGI (SK-MEL-5 melanoma) was 19.2 µM, the TGI (UO-31 renal) was 22.8 µM and the TGI (KM12 colon) was 12.4 µM. It also gave a TGI (M14 melanoma) of 17.4 µM, a TGI (MDA-MB-435) of 20.8 µM and a TGI (SK-MEL-28 melanoma) of 35.6 µM. The TGI (786-0 renal) was 25.9 µM.
